Tests used:
[1] = system: Peritoneal macrophages (PEC); experiment: Tolerance and M1/M2 gene expression in murine peritoneal macrophages (Real-Time PCR); assay type: cell-based, mice
Experimental: Peritoneal macrophages (PEC) isolated from C57 black mice are used to test the tolerogenic effects of compound 2 of Table 2. The effects of this TLR7 ligand are analyzed in terms of gene expression (Real-Time PCR) of both pro-inflammatory (e.g. TNF-alpha, IL-1, IL-6) and anti-inflammatory (e.g. IL-10, TGF-beta) cytokines. Further, additional markers of M1 (e.g. iNOS, IL-12, IFN-beta, CXCL9, CXCL10) versus M2 (e.g. arginase I, Ym1, Fizz1, CCL17, CCL22, dectin 1, MGL) macrophage polarization is determined, in order to evaluate the polarizing activities of this compound. This analysis is instrumental to the understanding of mechanisms driving the tolerogenic action of compound 2 of Table 2, as an M2 polarized response is considered to be an alternative anti-inflammatory and “tolerogenic” macrophage program.
With respect to macrophage tolerance, cells are treated with two doses of compound 2 of Table 2 (1 microM and 10 microM) up to 20 hours and then re-challenged with agonists/ligands of different TLRs (TLR2, TLR4, TLR5, TLR9, TLR7, etc.), including the TLR7 unconjugated ligand 1V209 (free pharmacophore) at a concentration of 10 microM.
In a first run of experiments, the tolerogenic and polarizing ability of compound 2 of Table 2, which also is referred to hereafter as “TMX,” was evaluated. To induce tolerance, PEC were pre-treated for 20 hours with 10 μM or 1 μM TMX. Next, total RNA from control (M/M), TMX activated (M/T), 1V209 (free pharmacophore)-activated (M/I), tolerant (T/M) and tolerant PEC re-challenged with TMX (T/T) or with 1V209 (free pharmacophore) (T/I), were analyzed by RT PCR for the expression of representative M1 and M2 genes. […] However, most of the M1 genes transcripts were still induced (FIG. 1C, D).
Cell Culture and treatments. Peritoneal exudate cells (PEC) were harvested from mice injected with 1 ml of 3% (w/v) thioglycollate medium (Difco, Detroit, Mich.) 4 days prior to isolation. PECs were incubated in RPMI 1640 medium, containing 10% fetal bovine serum, 2 mM glutamine and 100 U/ml of penicillin-streptomycin. The concentration for the different treatments were as follows: LPS (100 ng/ml) (Lipopolysaccharide from Salmonella Abortus Equi S-form, Alexis), CpG (1 μg/ml), Pam3CSK (2 μg/ml), Poly I:C (10 μg/ml), Loxorubine (100 μM), flagellin (100 ng/ml) IL-1β (20 ng/ml), TNF (20 ng/ml), IL-10 (20 ng/ml) (Peprotech), IFNγ (200 U/ml) (Peprotech). To induce TMX tolerance, cells were incubated in the presence of TMX (10 μM or 1 μM) for 20 hrs, washed and maintained in RPMI medium for 2 hrs and then re-challenged with TMX (10 μM) for 4 hrs. To induce TMX-tolerization (T/M) cells were treated with TMX for 20 hrs, washed and then maintained in medium for additional 6 hours, without TMX re-challenge. To induce M1-activation, cells were incubated in medium for 20 hrs, washed, left in medium for 2 hrs and finally stimulated with TMX (10 μM) for 4 hrs. Control cells (M/M) were cultured in medium for the entire period of the experiment. For gene expression analysis, total RNA was extracted from TMX treated and untreated cells with trizol (Invitrogen), according to the manufacturer's instructions. To analyze cytokines and chemokines production supernatants were collected 24 hrs after the second challenge with TMX.
(§1) Real-Time PCR. Total RNA was purified as previously described. Briefly, reverse transcription from 1 μg of RNA was performed using cDNA Archive kit (Applied Biosystem, NJ, USA). Real time PCR was performed using Power Syber Green PCR Master Mix (Applied Biosystem, NJ, USA) and detected by 7900HT Fast Real-Time System (Applied Biosystem, NJ, USA). Data were processed using the SDS2.2.2 software (Applied Biosystem, NJ, USA). Results were normalized to the expression of the housekeeping gene β-actin and then expressed as folds of upregulation, with respect to the control cell population.

human monocytes (Mo) = experiment: M1/M2 gene expression in human monocytes (Real-Time PCR); assay type: cell-based
Experimental: To evaluate the effects of TMX on human cell activation, monocytes were isolated from buffy coats obtained from four different healthy donors. With respect to macrophage tolerance, cells were treated with Compound 2 (10 microM) up to 20 hours and then re-challenged with agonists/ligands of different TLRs (TLR2, TLR4, TLR5, TLR9, TLR7, etc. . . . ), including the TLR7 unconjugated ligand 1V209 (free pharmacophore) at a concentration of 10 microM.
Cell Culture and treatments. Monocytes (Mo) were obtained from buffycoats collected from healthy donors as previously described (Porta C et al, PNAS 2009). Cells were incubated in RPMI 1640 medium, containing 10% fetal bovine serum, 2 mM glutamine and 100 U/ml of penicillin-streptomycin. The concentrations for the different treatments were as follows: LPS (100 ng/ml) (Lipopolysaccharide from Salmonella Abortus Equi S-form, Alexis), CpG (1 microg/ml), Pam3CSK (2 microg/ml), Poly I:C (10 microg/ml), Loxorubine (100 microM), flagellin (100 ng/ml). To induce TMX tolerance, cells were incubated in the presence of TMX (10 microM) for 20 hrs, washed and maintained in RPMI medium for 2 hrs and then re-challenged with TMX (10 microM) for 4 hrs. To induce TMX-tolerization (T/M) cells were treated with TMX for 20 hrs, washed and then maintained in medium for additional 6 hours, without TMX re-challenge. To induce M1-activation cells were incubated in medium for 20 hrs, washed, left in medium for 2 hrs and finally stimulated with TMX (10 microM) for 4 hrs. Control cells (M/M) were cultured in medium for the entire period of the experiment. For gene expression analysis, total RNA was extracted from TMX treated and untreated cells with trizol (Invitrogen), according to the manufacturer's instructions. To analyze cytokines and chemokines production supernatants were collected 24 hrs after the second challenge with TMX.
as §1, with “from 1 microgram of RNA” for “from 1 μg of RNA”, “performed using a cDNA Archive” for “performed using cDNA Archive”, “housekeeping gene 8-actin and then” for “housekeeping gene β-actin and then”

[2] = PEC pre-treated 20 hours with 10 μM TMX, RT PCR

COCCOc1nc(N)c2nc(O)n(Cc3ccc(C(=O)NCCOCCOCCOCCOCCOCCOCCn4cc(CCC(=O)O)nn4)cc3)c2n1 [Compound 2]
M2 gene expression ([1]; 1 μM TMX pre-treatment, except for IL-10): did not enhance | M1 (TNF-alpha, IL-12, IFN-beta, CXCL10) gene expression in state of tolerance [1, 2]: low | selected M2 genes (IL-10, TGFβ, Arg I, CCL17, CCL22) in state of tolerance [1, 2]: high levels | M2 markers Ym1, Fizz1, MGL2 gene transcripts ([1]; PEC, TMX): No significant modulation | induction of tolerance ([1]; pre-treatment with 1 μM TMX, except for IL-12p40): unable to induce tolerance | macrophage activation ([1]; prolonged exposure of PEC to high concentration of TMX): M2 skewed activation | IL-10 expression in tolerant Mo as compared to activated Mo (human monocytes (Mo)): inhibited | M1 markers CXCL9, IFNbeta, iNOS and M2 cytokine TGFbeta (human monocytes (Mo)): No significant modulation | tolerizing and polarizing activity on human cells as compared to murine cells (human monocytes (Mo)): partial tolerizing and polarizing activity | M1 (TNF-alpha, IL-1-beta IL-6, IL-12, CXCL10) gene expression in state of tolerance (human monocytes (Mo); 10 microM, 20 hours, Mo from 3 out of 4 healthy donors): low | M1 markers TNF-alpha, IL12-p40 IL-1 IL6 CXCL10 and IFNbeta (human monocytes (Mo); TMX pretreatment): down-regulated | M2 genes CCL17, CCL18, CCL22 in tolerant versus activated Mo (human monocytes (Mo); few exceptions (CCL18, CCL22 in single donors)): further induced | M2 signature chemokines CCL17, CCL18 and CCL22 (human monocytes (Mo); presence of TMX compound): increased

Reference: patent publication US20120083473A1, “TREATMENT OF CONDITIONS BY TOLL-LIKE RECEPTOR MODULATORS” (priority 2010, published 2012)
